For 15 compounds, GI50 and TGI results are on record in PubChem BioAssay (NCI).

Some test systems named below: SF-295 CNS; IGROV1 ovarian; K-562 leukemia; HT29 colon; HL-60(TB) leukemia; UACC-62 melanoma; OVCAR-4 ovarian; RPMI-8226 leukemia.
Common to all, as to assay: growth of human tumour cells (NCI), 48 h

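Five compound concentrations were applied to cells in 96-well plates for 48 hours; endpoints were derived by simple linear interpolation of the resulting dose-response curve. The concentration for 50% growth inhibition is given as GI50. TGI marks complete inhibition of growth.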

Turning to `C1C[OH+]CC[OH+]CCNCC[OH+]CC[OH+]CCN1.N.[Cl-].[Pt+4]`, the GI50 in the experiment with SF-295 CNS was 2.96 µM; with IGROV1 ovarian, 4.55 µM; in the experiment on K-562 leukemia, 12.7 µM; in the experiment with HT29 colon, 22.1 µM; in the experiment with HL-60(TB) leukemia it was 1.61 µM; in the experiment on UACC-62 melanoma, 3.39 µM. Besides, the GI50 in the experiment on OVCAR-4 ovarian was 2.84 µM; with RPMI-8226 leukemia, 10.2 µM. The TGI in the experiment on SF-295 CNS is 19.7 µM; in the experiment on IGROV1 ovarian it was 34.7 µM; in the experiment on K-562 leukemia, greater than 100 µM; in the experiment on HT29 colon, greater than 100 µM; in the experiment on HL-60(TB) leukemia, greater than 100 µM; in the experiment on UACC-62 melanoma it was 14.9 µM. Also, the values for the TGI in the experiment on OVCAR-4 ovarian and with RPMI-8226 leukemia were 11.6 µM and 92.7 µM, respectively.
`CCCNC1=C(C(=O)OCC)C(=O)CO1`: the TGI with SF-295 CNS, in the experiment on IGROV1 ovarian, with K-562 leukemia, in the experiment with HT29 colon, in the experiment on HL-60(TB) leukemia and in the experiment with UACC-62 melanoma was greater than 100 µM in each case. Also, the TGI in the experiment with OVCAR-4 ovarian and in the experiment on RPMI-8226 leukemia was greater than 100 µM each time.
For `CCCCCCCCCCCC(=O)OCC1OC(n2cc(F)c(=O)[nH]c2=O)C(NC(=O)OCc2ccccc2)C(OC(=O)CCCCCCCCCCC)C1O` (stereo not given), the TGI in the experiment on SF-295 CNS, in the experiment with IGROV1 ovarian, in the experiment with K-562 leukemia, in the experiment with HT29 colon, with UACC-62 melanoma and in the experiment on OVCAR-4 ovarian was greater than 100 µM each time. Moreover, the TGI in the experiment with RPMI-8226 leukemia was greater than 100 µM.
Consider `O=[N+]([O-])C1C2C=CC(C2)[C@H]1c1ccco1` (stereo not given in full), for which the TGI in the experiment with SF-295 CNS is greater than 100 µM; with IGROV1 ovarian it was greater than 100 µM; in the experiment on K-562 leukemia, greater than 100 µM; in the experiment with HT29 colon, 9.22 µM; with HL-60(TB) leukemia it was greater than 100 µM; in the experiment on UACC-62 melanoma it was greater than 100 µM. Also, the TGI with OVCAR-4 ovarian is greater than 100 µM.
As for `O=C(CN1CCOCC1)Nc1nc(-c2ccc(Cl)cc2)cs1`, the TGI in the experiment with SF-295 CNS is greater than 100 µM; with IGROV1 ovarian it was greater than 100 µM; in the experiment with K-562 leukemia, 94.5 µM; with HT29 colon, greater than 100 µM; in the experiment on HL-60(TB) leukemia, 44.9 µM; with UACC-62 melanoma, 53.3 µM. Besides, the TGI was greater than 100 µM in the experiment with OVCAR-4 ovarian and 53.7 µM in the experiment with RPMI-8226 leukemia.
As to `CCCCC(CC)CN=C(N)NC(N)=NCCCCCCN=C(N)NC(N)=NCC(CC)CCCC` (stereo not given), the GI50 in the experiment with HL-60(TB) leukemia is 2.07 µM; with UACC-62 melanoma, 1.84 µM; in the experiment with OVCAR-4 ovarian it was 1.9 µM. The figures for the TGI with HL-60(TB) leukemia, in the experiment with UACC-62 melanoma and in the experiment with OVCAR-4 ovarian were 3.97 µM, 4.12 µM and 4.85 µM, respectively.
As to `Cc1ccc(C(=O)c2nnc(C(=O)c3ccc(C)cc3)nn2)cc1`, the TGI in the experiment on SF-295 CNS was greater than 100 µM; in the experiment on IGROV1 ovarian, greater than 100 µM; with K-562 leukemia, 55.8 µM; with HT29 colon it was greater than 100 µM; with HL-60(TB) leukemia, 48.2 µM; in the experiment with UACC-62 melanoma it was greater than 100 µM. Moreover, the TGI in the experiment on OVCAR-4 ovarian and with RPMI-8226 leukemia was greater than 100 µM throughout.
Consider `NNC(=O)/C(=C/c1ccc(Cl)cc1Cl)NC(=O)c1ccccc1`, for which the TGI in the experiment on SF-295 CNS, with IGROV1 ovarian, in the experiment on K-562 leukemia, in the experiment on HT29 colon, in the experiment on HL-60(TB) leukemia and with UACC-62 melanoma was greater than 100 µM throughout. Besides, the TGI with OVCAR-4 ovarian and in the experiment with RPMI-8226 leukemia was greater than 100 µM each time.
Take `CN(C)C(=O)OC(Cn1cncn1)c1ccc(Cl)cc1Cl` (stereo not given): the TGI in the experiment with SF-295 CNS, with IGROV1 ovarian, in the experiment with K-562 leukemia, with HT29 colon, in the experiment with HL-60(TB) leukemia and in the experiment with UACC-62 melanoma was greater than 100 µM each time. The TGI in the experiment with OVCAR-4 ovarian and in the experiment on RPMI-8226 leukemia was greater than 100 µM throughout.
Regarding `C#CCOCn1cnc2c(Cl)ncnc21`, the TGI in the experiment with SF-295 CNS, with IGROV1 ovarian, with K-562 leukemia, in the experiment with HT29 colon, in the experiment on UACC-62 melanoma and with OVCAR-4 ovarian was greater than 100 µM throughout. The compound also gave a TGI in the experiment on RPMI-8226 leukemia greater than 100 µM.
Consider `COc1ccc(OC)c(NC(=O)C2=C(C)NC(C)=C(C(=O)Nc3cc(OC)ccc3OC)C2c2ccccc2)c1`, for which the TGI with SF-295 CNS, in the experiment with IGROV1 ovarian, in the experiment on K-562 leukemia, in the experiment on HT29 colon, with UACC-62 melanoma and in the experiment with OVCAR-4 ovarian was greater than 100 µM throughout. In the experiment with RPMI-8226 leukemia, the TGI is greater than 100 µM.
As to `CC1C=C(OC(=O)c2ccccc2)C(=O)C(n2cc(F)c(=O)[nH]c2=O)O1` (stereo not given), the TGI in the experiment with SF-295 CNS, in the experiment on IGROV1 ovarian, in the experiment with K-562 leukemia, in the experiment on HT29 colon, in the experiment on HL-60(TB) leukemia and in the experiment with UACC-62 melanoma was greater than 100 µM in each case. Also, the TGI in the experiment with OVCAR-4 ovarian and in the experiment on RPMI-8226 leukemia was greater than 100 µM in each case.
As for `C/C(=N\NS(=O)(=O)c1ccccc1)c1ccc(Cl)c(Cl)c1`, the TGI in the experiment on SF-295 CNS, in the experiment on IGROV1 ovarian, in the experiment with K-562 leukemia, in the experiment with HT29 colon, in the experiment with HL-60(TB) leukemia and in the experiment with UACC-62 melanoma was greater than 100 µM throughout. Also, the TGI in the experiment on OVCAR-4 ovarian and in the experiment on RPMI-8226 leukemia was greater than 100 µM in each case.
As to `Cc1ccc(NC(=O)C(=O)C(C#N)c2ccccc2C)cc1C` (stereo not given), the TGI in the experiment with SF-295 CNS was greater than 100 µM; in the experiment on IGROV1 ovarian, greater than 100 µM; with K-562 leukemia, greater than 70.1 µM; in the experiment with HT29 colon, greater than 100 µM; in the experiment on HL-60(TB) leukemia it was greater than 85.8 µM; in the experiment on UACC-62 melanoma it was greater than 100 µM. The TGI with OVCAR-4 ovarian and in the experiment with RPMI-8226 leukemia was greater than 100 µM throughout.
As to `C=CCC[CH2][Sn]([c]1ccccc1)([c]1ccccc1)[c]1ccccc1`, the GI50 was 1.99 µM in the experiment with SF-295 CNS; 1.77 µM in the experiment on IGROV1 ovarian; 2.15 µM with K-562 leukemia; 2.25 µM in the experiment on HT29 colon; 5.29 µM in the experiment with HL-60(TB) leukemia; 1.11 µM with UACC-62 melanoma. The GI50 in the experiment with OVCAR-4 ovarian was 1.48 µM; in the experiment with RPMI-8226 leukemia, 1.65 µM. Further, the TGI in the experiment on SF-295 CNS was 3.6 µM; in the experiment on IGROV1 ovarian, 3.35 µM; in the experiment with K-562 leukemia, 16.5 µM; in the experiment with HT29 colon it was 4.73 µM; in the experiment on HL-60(TB) leukemia, greater than 100 µM; in the experiment on UACC-62 melanoma, 2.36 µM. In addition, the TGI in the experiment with OVCAR-4 ovarian came to 2.86 µM; in the experiment on RPMI-8226 leukemia, 4.37 µM.
